Experimental data taken from US8034787B2, “Enzyme-cleavable prodrug compounds” (Medarex, Inc., priority 1998, dated 2011).
Square brackets hold non-standard residues; d marks the D form. Peptide text beside a SMILES is read from it. * marks the point of attachment. Mcc = 7-methoxycoumarin-3-carboxyl, COc1ccc2cc(C(=O)*)c(=O)oc2c1; Sta = CC(C)C[C@H](N)[C@@H](O)CC(=O)O; Isovaleryl = CC(C)CC(=O)*

Legend:
[1] = molecular target: T1, MCF-7/6 cell conditioned media trouase (Homo sapiens, UniProt P52888); experiment: Thiol activation of MCF-7/6 conditioned medium; assay type: biochemical; settings: 1 mM DTT, 30 minutes pre-incubation
T1 construct: MCF-7/6 conditioned medium was pre-incubated for 30 minutes at room temperature with dithiothreitol (DTT); endogenous in cells; host or cells: MCF-7/6 conditioned medium
T1 sequence (P52888 whole entry): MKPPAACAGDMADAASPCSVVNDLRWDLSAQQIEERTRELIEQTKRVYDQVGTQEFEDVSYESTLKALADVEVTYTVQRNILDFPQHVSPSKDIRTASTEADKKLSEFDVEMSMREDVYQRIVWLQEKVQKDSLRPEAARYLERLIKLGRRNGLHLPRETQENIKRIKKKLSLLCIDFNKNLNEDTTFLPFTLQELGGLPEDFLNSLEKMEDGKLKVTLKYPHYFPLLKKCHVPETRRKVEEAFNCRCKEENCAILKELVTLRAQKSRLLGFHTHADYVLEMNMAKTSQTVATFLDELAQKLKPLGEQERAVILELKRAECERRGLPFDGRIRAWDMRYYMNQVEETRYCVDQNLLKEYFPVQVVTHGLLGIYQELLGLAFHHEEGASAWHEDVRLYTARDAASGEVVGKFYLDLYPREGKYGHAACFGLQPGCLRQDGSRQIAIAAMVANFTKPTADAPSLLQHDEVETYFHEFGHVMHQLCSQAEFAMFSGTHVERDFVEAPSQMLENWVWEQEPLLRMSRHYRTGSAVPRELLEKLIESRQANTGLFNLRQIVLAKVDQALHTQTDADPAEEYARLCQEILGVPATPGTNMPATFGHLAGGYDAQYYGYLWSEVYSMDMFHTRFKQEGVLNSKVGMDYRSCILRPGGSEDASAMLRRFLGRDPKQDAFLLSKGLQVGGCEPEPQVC

[2] = molecular target: T2, MCF-7/6 cell homogenate trouase (Homo sapiens, UniProt P52888); experiment: Inhibition of MCF-7/6 cell homogenate trouase activity; assay type: biochemical
T2 construct: the cells (approximately 300 μL wet) were homogenized by grinding in 1.7 mL 10 mM pH 7.2 HEPES buffer; endogenous in cells; host or cells: MCF-7/6 (breast carcinoma)
T2 sequence (P52888 whole entry): as above

[3] = Acute toxicity of N-capped prodrugs, intravenous bolus in mice; assay type: in vivo; settings: intravenous bolus of 250 mg/kg (Dox-HCl eq.), three to five mice per group
HL-60 cells = experiment: 3H-thymidine incorporation proliferation assay; assay type: cell-based; settings: 24 hours
Method: Promyelocytic leukemia cells, HL-60, were cultured in RPMI media containing 10% heat inactivated fetal calf serum (FCS). On the day of the study, the cells were collected, washed and resuspended at a concentration of 0.5×10^6 cells/ml in RPMI containing 10% FCS. 100 μl/well of cell suspension was added to 96 well plates. […] Finally, 10 μl of a 100 μCi/ml ^3H-thymidine was added per well and the plates were incubated for 24 hours. The plates were harvested using a 96 well Harvester (Packard Instruments) and counted on a Packard Top Count counter. Four parameter logistic curves were fitted to the ^3H-thymidine incorporation as a function of drug molarity using Prism software to determine IC50 values.

MCF 7/6 cell homogenate = experiment: Extent of cleavage by cell homogenate (Example 14); assay type: biochemical, human; settings: 12.5 μg/mL, 2 hr, 37° C.
[4] = molecular target: T3, partially purified trouase preparation (Homo sapiens, UniProt P52888); experiment: Extent of cleavage by partially purified trouase preparation (Example 14); assay type: biochemical; settings: 12.5 μg/mL, 2 hr, 37° C.
T3 construct: The fractions containing the highest activity levels were pooled (fractions #43-46); host or cells: HeLa
T3 sequence (P52888 whole entry): as above

HeLa cell trouase (F1) = molecular target: T4, HeLa cell trouase (F1) (Homo sapiens, UniProt P52888); experiment: Rates of hydrolysis by partially purified HeLa cell trouase (F1); assay type: biochemical; settings: 10 μg/mL substrate, pH 7.2 10 mM HEPES, 100 μM MnCl2, 37° C.; Suc-βAla-Leu-Ala-Leu-Dox = 1.0
T4 construct: The fractions containing the highest activity levels were pooled (fractions #43-46); host or cells: HeLa
T4 sequence (P52888 whole entry): as above

[5] = molecular target: T5, recombinant rat TOP (rRTOP) (Rattus norvegicus, UniProt P24155); experiment: Rates of hydrolysis by recombinant rat TOP; assay type: biochemical; settings: for Rate of hydrolysis TOP: 10 μg/mL substrate, pH 7.2 10 mM HEPES, 100 μM MnCl2, 37° C., Suc-βAla-Leu-Ala-Leu-Dox = 1.0
T5 construct: made in house; host or cells: E. coli
T5 sequence (P24155 whole entry): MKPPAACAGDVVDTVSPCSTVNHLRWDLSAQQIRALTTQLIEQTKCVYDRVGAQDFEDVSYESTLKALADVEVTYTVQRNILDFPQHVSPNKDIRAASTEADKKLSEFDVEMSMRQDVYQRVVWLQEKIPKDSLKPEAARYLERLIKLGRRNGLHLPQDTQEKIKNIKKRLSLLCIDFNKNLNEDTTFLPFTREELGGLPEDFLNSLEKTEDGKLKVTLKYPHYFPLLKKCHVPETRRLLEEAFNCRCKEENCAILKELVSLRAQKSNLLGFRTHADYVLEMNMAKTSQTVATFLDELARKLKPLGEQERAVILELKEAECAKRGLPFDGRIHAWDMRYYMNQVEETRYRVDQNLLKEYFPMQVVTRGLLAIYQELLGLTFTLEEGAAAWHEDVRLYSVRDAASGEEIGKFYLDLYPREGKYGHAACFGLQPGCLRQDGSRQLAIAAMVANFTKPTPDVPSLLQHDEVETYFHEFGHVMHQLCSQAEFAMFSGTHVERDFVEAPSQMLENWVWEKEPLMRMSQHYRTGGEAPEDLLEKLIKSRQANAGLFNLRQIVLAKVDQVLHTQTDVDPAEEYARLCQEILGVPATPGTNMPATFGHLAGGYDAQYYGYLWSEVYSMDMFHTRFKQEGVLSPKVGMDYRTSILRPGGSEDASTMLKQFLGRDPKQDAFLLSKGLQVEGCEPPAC

Porcine Kidney CD10 = experiment: Hydrolysis by purified CD10; assay type: biochemical; settings: 12.5 μg/mL, 37° C., pH 7.4, 10 hr
[6] = molecular target: T6, HeLa cell Fraction 1 trouase (Homo sapiens, UniProt P52888); experiment: Inhibition of Suc-βAla-Leu-Ala-Leu-Dox hydrolysis by HeLa cell Fraction 1; assay type: biochemical; settings: 3 μM
T6 construct: The fractions containing the highest activity levels were pooled (fractions #43-46); host or cells: HeLa
T6 sequence (P52888 whole entry): as the sequence (P52888 whole entry) above

Compound: O[C@H](CS)[C@H](O)CS (racemic) [DTT, dithiothreitol]
- activation of Suc-βAla-Leu-Ala-Leu-Dox hydrolysis [1]: tenfold activation

Compound: c1cnc2c(c1)ccc1cccnc12 [1,10 phenanthroline]
- trouase activity inhibition ([2]; 2 mM 1,10 phenanthroline): 9 fold

Compound: CCCNC(=O)[C@H]1O[C@@H]1C(=O)N[C@H](C(=O)N1CCC[C@H]1C(=O)O)[C@@H](C)CC [CA-074]
- trouase activity inhibition ([2]; 1 μM): not inhibited

Compound: CC(C)C[C@H](NC(=O)[C@H]1O[C@@H]1C(=O)O)C(=O)NCCCCN=C(N)N [E-64]
- trouase activity inhibition ([2]; 20 μM E-64): not inhibited

Compound: O=C(O)CN(CCN(CC(=O)O)CC(=O)O)CC(=O)O [EDTA]
- trouase activity inhibition ([2]; 1 mM EDTA): 9 fold

Compound: COc1cccc2c1C(=O)c1c(O)c3c(c(O)c1C2=O)C[C@@](O)(C(=O)CO)C[C@@H]3O[C@H]1C[C@H](NC(=O)[C@H](CC(C)C)NC(=O)[C@H](C)NC(=O)[C@H](CC(C)C)NC(=O)CCNC(=O)CCCC(=O)O)[C@H](O)[C@H](C)O1 [Gl-βAla-Leu-Ala-Leu-Dox]
- survival up to 8 days [3]: all animals survived

Compound: COc1cccc2c1C(=O)c1c(O)c3c(c(O)c1C2=O)C[C@@](O)(C(=O)CO)C[C@@H]3O[C@H]1C[C@H](NC(=O)[C@@H](N)CC(C)C)[C@H](O)[C@H](C)O1 [Leucyl-Doxorubicin]
- IC50 (HL-60 cells): 0.222 µM

Compound: COc1cccc2c1C(=O)c1c(O)c3c(c(O)c1C2=O)CC(O)(C(C)=O)CC3OC1CC(NC(=O)C(CC(C)C)NC(=O)C(C)NC(=O)C(CC(C)C)NC(=O)C(C)NC(=O)CCC(=O)O)C(O)C(C)O1 (stereo not drawn) [Suc-Ala-Leu-Ala-Leu-Dnr]
- extent (rate) of cleavage versus the P2 β-alanine compound (MCF 7/6 cell homogenate): 1.3 fold
- extent of cleavage versus the P2 β-alanine compound [4]: 0.6 fold

Compound: CC[C@H](C)[C@H](NC(=O)CCC(=O)O)C(=O)N[C@@H](C)C(=O)N[C@@H](CC(C)C)C(=O)N[C@H]1C[C@H](O[C@H]2C[C@](O)(C(=O)CO)Cc3c(O)c4c(c(O)c32)C(=O)c2c(OC)cccc2C4=O)O[C@@H](C)[C@H]1O [Suc-Ile-Ala-Leu-Dox]
- Rate of hydrolysis (F1) (HeLa cell trouase (F1)): 0
- Rate of hydrolysis TOP [5]: 0

Compound: CCC(C)C(NC(=O)CCC(=O)O)C(=O)N(C)C(C)C(=O)NC(CC(C)C)C(=O)NC1CC(OC2CC(O)(C(=O)CO)Cc3c(O)c4c(c(O)c32)C(=O)c2c(OC)cccc2C4=O)OC(C)C1O (stereo not drawn) [Suc-Ile-NmAla-Leu-Dox]
- Rate of hydrolysis (F1) (HeLa cell trouase (F1)): 0
- Rate of hydrolysis TOP [5]: 0

Compound: COc1cccc2c1C(=O)c1c(O)c3c(c(O)c1C2=O)C[C@@](O)(C(=O)CO)C[C@@H]3O[C@H]1C[C@H](NC(=O)CNC(=O)[C@H](C)NC(=O)[C@H](CC(C)C)NC(=O)CCC(=O)O)[C@H](O)[C@H](C)O1 [Suc-Leu-Ala-Gly-Dox]
- Rate of hydrolysis (F1) (HeLa cell trouase (F1)): 0.4
- Rate of hydrolysis TOP [5]: 0.43

Compound: COc1cccc2c1C(=O)c1c(O)c3c(c(O)c1C2=O)C[C@@](O)(C(=O)CO)C[C@@H]3O[C@H]1C[C@H](NC(=O)[C@H](CC(C)C)NC(=O)[C@H](C)NC(=O)[C@H](CC(C)C)NC(=O)CCC(=O)O)[C@H](O)[C@H](C)O1 [Suc-Leu-Ala-Leu-Dox]
- Rate of hydrolysis (F1) (HeLa cell trouase (F1)): 0.78
- Rate of hydrolysis TOP [5]: 0.67

Compound: COc1cccc2c1C(=O)c1c(O)c3c(c(O)c1C2=O)CC(O)(C(=O)CO)CC3OC1CC(NC(=O)C(CC(C)C)NC(=O)C(C)N(C)C(=O)C(CC(C)C)NC(=O)CCC(=O)O)C(O)C(C)O1 (stereo not drawn) [Suc-Leu-NmAla-Leu-Dox]
- Rate of hydrolysis (F1) (HeLa cell trouase (F1)): 0
- Rate of hydrolysis TOP [5]: 0

Compound: COc1cccc2c1C(=O)c1c(O)c3c(c(O)c1C2=O)C[C@@](O)(C(=O)CO)C[C@@H]3O[C@H]1C[C@H](NC(=O)[C@H](CC(C)C)NC(=O)[C@H](C)NC(=O)[C@H](CCSC)NC(=O)CCC(=O)O)[C@H](O)[C@H](C)O1 [Suc-Met-Ala-Leu-Dox]
- Rate of hydrolysis (F1) (HeLa cell trouase (F1)): 0.49
- Rate of hydrolysis TOP [5]: 0.99

Compound: CC[C@H](C)[C@H](NC(=O)CCNC(=O)CCC(=O)O)C(=O)N[C@@H](C)C(=O)N[C@@H](CC(C)C)C(=O)N[C@H]1C[C@H](O[C@H]2C[C@](O)(C(=O)CO)Cc3c(O)c4c(c(O)c32)C(=O)c2c(OC)cccc2C4=O)O[C@@H](C)[C@H]1O [Suc-βAla-Ile-Ala-Leu-Dox]
- Rate of hydrolysis (F1) (HeLa cell trouase (F1)): 0.025
- Rate of hydrolysis TOP [5]: <0.03

Compound: COc1cccc2c1C(=O)c1c(O)c3c(c(O)c1C2=O)CC(O)(C(=O)CO)CC3OC1CC(NC(=O)C(C)NC(=O)C(C)NC(=O)C(CC(C)C)NC(=O)CCNC(=O)CCC(=O)O)C(O)C(C)O1 (stereo not drawn) [Suc-βAla-Leu-Ala-Ala-Dox]
- cleavage by TOP (presumed) [5]: well cleaved

Compound: COc1cccc2c1C(=O)c1c(O)c3c(c(O)c1C2=O)CC(O)(C(=O)CO)CC3OC1CC(NC(=O)CNC(=O)C(C)NC(=O)C(CC(C)C)NC(=O)CCNC(=O)CCC(=O)O)C(O)C(C)O1 (stereo not drawn) [Suc-βAla-Leu-Ala-Gly-Dox]
- cleavage by TOP [5]: well cleaved

Compound: COc1cccc2c1C(=O)c1c(O)c3c(c(O)c1C2=O)CC(O)(C(=O)CO)CC3OC1CC(NC(=O)C(CC(C)C)NC(=O)C(Cc2ccc(O)cc2)NC(=O)C(CC(C)C)NC(=O)CCNC(=O)CCC(=O)O)C(O)C(C)O1 (stereo not drawn) [Suc-βAla-Leu-Tyr-Leu-Dox]
- % hydrolysis/10 hr (Porcine Kidney CD10): 0%
- Fraction hydrolyzed relative to standard (Porcine Kidney CD10): 0

Compound: CO[C@@H]1[C@H](OC(=O)/C=C/C=C/C=C/C=C/C(=O)O)CC[C@]2(CO2)[C@H]1[C@@]1(C)O[C@@H]1CC=C(C)C [fumagillin]
- carcinoma cell trouase inhibition ([2]; concentration not given): not

Compound: CC(=O)N[C@@H](CC(C)C)C(=O)N[C@@H](CC(C)C)C(=O)N[C@H](C=O)CCCNC(=N)N [leupeptin]
- trouase activity inhibition ([2]; 20 μM leupeptin): not inhibited

Compound: CC(C)CC(=O)N[C@H](C(=O)N[C@H](C(=O)N[C@@H](CC(C)C)[C@@H](O)CC(=O)N[C@@H](C)C(=O)N[C@@H](CC(C)C)[C@@H](O)CC(=O)O)C(C)C)C(C)C [pepstatin] (Isovaleryl-VV[Sta]A[Sta]-OH)
- trouase activity inhibition ([2]; 1.5 μM): not inhibited

Compound: Mcc-Pro-Leu-Gly-Pro-D-Lys(DNP) (Mcc-PLGP-{dK(DNP)}) [quenched fluorescent substrate; Mcc = 7-Methoxycoumarin-3-carboxyl, DNP dinitrophenyl, reference compound]
- Rate of hydrolysis (F1) (HeLa cell trouase (F1)): 1.5
- Rate of hydrolysis TOP [5]: 1.1

Compound: N-[1-(RS)-carboxypropyl-Ala-Ala-Phe-p-aminobenzoate [Cpp-AAF-pAB]
- inhibition of Suc-βAla-Leu-Ala-Leu-Dox hydrolysis [6]: completely inhibited

Compound: aminoethylbenzenesulfonylfluoride
- trouase activity inhibition ([2]; 50 μM): not inhibited

Compound: aprotinin
- trouase activity inhibition ([2]; 4 μg/mL): not inhibited
